Experiments:
Aβ 1-42 = molecular target: T1, Aβ 1-42 (Homo sapiens, UniProt P05067); assay: Assay 1 Fluorometric H2O2 assay (peroxide); assay type: biochemical; conditions: inhibition of H2O2 generation by Aβ with copper
T1 construct: The reaction solutions contained Aβ 1-42 at concentrations
Procedure: Assay 1. Fluorometric H2O2 Assay
A fluorometric assay was used to test the ability of a test compound to inhibit hydrogen peroxide generation by Aβ in the presence of copper based on dichlorofluoroscein diacetate (DCF; Molecular Probes, Eugene Oreg.). The DCF solution (5 mM) in 100% dimethyl sulphoxide (previously purged with argon for 1 hr at 20° C.) was deacetylated in the presence of 0.025M NaOH for 30 min and neutralised at pH 7.4 to a final concentration of 1 mM. Horseradish peroxidase (HRP) stock solution was prepared to 1 μM at pH 7.4. The reactions were carried out in PBS, pH 7.4 in a 96 well plate (total volume=250 μl/well). The reaction solutions contained Aβ 1-42 at concentrations in the range of 50 nM to 1 μM, copper-glycine chelate (Cu-Gly), was prepared by adding CuCl2 to glycine in the ratio of 1:6 and added to the Aβ in the proportion 2Cu-Gly:1Aβ), reducing agents including dopamine (5 μM) or ascorbic acid, deacetylated DCF 100 μM, and HRP, 0.1 μM. 1-10 μM EDTA or another chelator may also be present as a control for free copper, but was not required for the assay to function. The reaction mixture was incubated at 37 C for 60 min. Catalase (4000 units/ml) and H2O2 (1-2.5 μM) standards in PBS pH 7.4 may be included as positive controls. Fluorescence was recorded using a plate reader with excitation and emission filters at […] respectively. H2O2 concentration may be established by comparing fluorescence with the H2O2 standards. Inhibition of Aβ H2O2 production was assayed by including a given concentration of test compound(s) in the test wells.

[1] = Assay 3(d) test compound cytotoxicity (MTS); assay type: cell-based; conditions: BL6Jx129sv, mouse, primary cortical neuronal cultures, cortical neurons; for viability at 4 days, 10 µM: read-out: Assay 3(d) Cytotoxicity (% viable at 10 uM); for viability at 4 days, 1 µM: read-out: Assay 3(d) Cytotoxicity (% viable at 1 uM)
Procedure: (§1) Primary Cortical Neuronal Cultures
(§2) Cortical cultures were prepared as previously described (White et al., 1998). Embryonic day 14 BL6Jx129sv mouse cortices were removed, dissected free of meninges and dissociated in 0.025% (wt/vol) trypsin. Dissociated cells were plated in 48 well culture plates at a density of 2×10^6 cells/mL in MEM with 25% (vol/vol) FCS and 5% (vol/vol) HS and incubated at 37° C., 2 hrs. Media was then replaced with Neurobasal media (Invitrogen Life Technologies) and B27 supplements (Invitrogen Life Technologies). Cultures were maintained at 37° C. in 5% CO2. Prior to experimentation, the culture medium was replaced with Neurobasal media and B27 minus antioxidants (Invitrogen Life Technologies).
(a) MTS Assay for Cell Viability
Cell viability is determined using the MTS assay. Culture medium is replaced with fresh neurobasal medium plus B27 supplements minus antioxidants. 1/10 volume MTS solution (Cell Titre 96 Aqueous One, Promega Corporation) and incubated at 37° C., 2 hrs. 200 microlitre aliquots are measured with a spectrophotometer at 560 nm.
(d) Assay for Test Compound Cytoxicity
Neuronal cortical cells were cultured for five days as per Assay 2 in NB media and B27 supplement.
On day six the test compounds were added to the neuronal cell cultures in NB media and B27 supplement minus antioxidants.
Test compounds were dissolved in 100% DMSO to a concentration of 2.5 mM (10 mM if excess compound was weighed out per vial—then diluted to 2.5 mM). 2.5 mM stock solution was serially diluted 1 in 10 to give working solutions of 250 uM, 25 uM, 2.5 uM. Test compounds were not added directly to cells, instead they were added to a 48 well ‘Drug Plate’ as comprised below:
(§3) Preparation of “Drug Plate”:
• Well 1: 576 ul NB+B27 (no antioxidant)*+24 ul 2.5 uM test compound • Well 2: 576 ul NB+B27 (no antioxidant)+24 ul 25 uM test compound • Well 3: 576 ul NB+B27 (no antioxidant)+24 ul 250 uM test compound • Well 4: 576 ul NB+B27 (no antioxidant)+24 ul 2.5 uM test compound • Well 5: 576 ul NB+B27 (no antioxidant)+24 ul 25 uM test compound • Well 6: 576 ul NB+B27 (no antioxidant)+24 ul 250 uM test compound • Well 7: 576 ul NB+B27 (no antioxidant)+24 ul test compound diluent** • Well 8: 600 ul NB+B27 (no antioxidant)
The Drug Plate was incubated at 37° C. for 15 mins. 200 ul of each well was added in triplicate to the corresponding cell plate. The cell plate was incubated at 37° C., for 4 days, (2 compounds are tested on each plate of cells).
* NB media and B27 (no antioxidants),
** PBT diluent 10% DMSO in NB+B27 (no antioxidants)
On completion of the assay, 1/10 volume MTS was added per well of plate (ie 25 ul/250 ul). The plates were incubated at 37° C. for 2 hrs, and then absorbance was read at 560 nm.

[2] = tested on: Aβ1-42 toxicity in neuronal cortical cells; assay: Assay 3(c) Aβ neurotoxicity and neuroprotection (MTS); assay type: cell-based, mouse; conditions: 20 uM Aβ1-42, cortical neurons, 4 days
Procedure: as §1, §2
(c) Assay for Aβ Neurotoxicity and Aβ Neuroprotection
Neuronal cortical cells were cultured for five days as per Assay 2. On day six the neurobasal (NB) media (Invitrogen Life Technologies) and B27 supplement (Invitrogen Life Technologies) were replaced with NB media and B27 supplement (no antioxidants). On day six, test compounds were individually added to the neuronal cell cultures:
The test compounds were dissolved in 100% DMSO to a concentration of 2.5 mM (10 mM if excess compound was weighed out per vial—then diluted to 2.5 mM). 2.5 mM stock solution was serially diluted 1 in 10 to give working solutions of 250 uM, 25 uM, 2.5 uM.
Aβ was initially dissolved in 20 mM NaOH to a concentration of 1 mM and sonicated for 5 minutes. The peptide was then diluted in H2O and 10×PBS to a final concentration of 200 uM Aβ in 1× PBS. The peptide was again sonicated for 5 minutes and then spun at 14000 rpm for 5 min and transferred to a fresh tube.
The test compounds were dissolved in 100% DMSO to a concentration of 2.5 mM (10 mM if excess compound was weighed out per vial—then diluted to 2.5 mM). 2.5 mM stock solution was serially diluted 1 in 10 [in NB media and B27 (no antioxidants)] to give working solutions of 250 uM, 25 uM, 2.5 uM. Test compounds were not added directly to cells, instead they were added to a 48 well ‘Drug Plate’ as comprised below:
as §3
Well 1: 515 ul NB+B27 (no antioxidant)*+24 ul 25 uM test compound+60 ul Aβ diluent**
Well 2: 515 ul NB+B27 (no antioxidant)+24 ul 250 uM test compound+60 ul Aβ diluent
Well 3: 515 ul NB+B27 (no antioxidant)+24 ul test compound diluent***+60 ul Aβ1-42
Well 4: 515 ul NB+B27 (no antioxidant)+24 ul 2.5 uM test compound+60 ul Aβ1-42
Well 5: 515 ul NB+B27 (no antioxidant)+24 ul 25 uM test compound+60 ul Aβ1-42
Well 6: 515 ul NB+B27 (no antioxidant)+24 ul 250 uM test compound+60 ul Aβ1-42 diluent
Well 7: 515 ul NB+B27 (no antioxidant)+24 ul test compound diluent+60 ul Aβ1-42 diluent
Well 8: 600 ul NB+B27 (no antioxidant)
The Drug Plate was incubated at 37° C. for 15 mins. 200 ul of each well was added in triplicate to the corresponding cell plate. The cell plate was incubated at 37 C, for 4 days.
* NB media+B27 (no antioxidants)
** Aβ diluent 2 mM NaOH, 1×PBS
*** PBT diluent 10% DMSO in NB+B27 (no antioxidant)
On the 4th day after treating the cells the assay is completed by adding MTS to the cells.

[3] = Assay 16 mouse plasma levels of test compounds; assay type: in vivo; conditions: highest level found in mice (Up to); oral dosing 30 mg/kg described for PB 1075-1077
Procedure: Assay 16. Determination of Mouse Plasma Levels of Test Compounds PB 1075
(§4) Oral administration of PB 1075 at 30 mg/kg, as a suspension in Na-Carboxymethyl Cellulose (CMC) was administered by oral gavage to four mice. Two mice were sacrificed 30 minutes after administration and two mice were sacrificed 60 minutes after administration. Blood was obtained by cardiac puncture and plasma separated by centrifugation.
The concentration of PB 1075 was determined by LC/MS using the triple quadrupole instrument. The mobile phase consisted of an acetonitrile (ACN)/water gradient (containing 0.05% Formic acid) and the column was a Phenomenex Lunea 5 um C8 (50×2 mm) column.
The supplied acute toxicity mouse plasma samples were directly injected following a protein precipitation with ACN. The analytical method in plasma was linear in the range of 10 to 10,000 ng/ml (R^2=0.994). Recovery of PB 1075 from plasma was ˜100%.
as §4, with “1076” for “1075”
The concentration of PB 1076 was determined by LC/MS using the triple quadrupole instrument. The mobile phase consisted of an acetonitrile (ACN)/water gradient (containing 0.05% Formic acid) and the column was a Phenomenex Luna 5 μM C8 (50×2 mm) column.
The mouse plasma samples were directly injected following a protein precipitation with ACN. The analytical method in plasma was linear in the range of 500 to 10,000 ng/ml (R^2=0.999). Recovery of PB 1076 from plasma was ˜85%.
as §4, with “1077” for “1075”
The concentration of PB 1077 was determined by LC/MS using the triple quadrupole instrument. The mobile phase consisted of an acetonitrile (ACN)/water gradient (containing 0.05% Formic acid) and the column was a Phenomenex Luna 5 μM C8 (50×2 mm) column.
The mouse plasma samples were directly injected following a protein precipitation with ACN. The analytical method in plasma was linear in the range of 5 to 5,000 ng/ml (R^2=0.999). Recovery of PB 1077 from plasma was ˜92%.

T1 sequence (P05067 672-713 limits assumed): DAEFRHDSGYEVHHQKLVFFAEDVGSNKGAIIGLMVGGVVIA

SMILES	IC50 (Aβ 1-42)	viability at 4 days, 10 µM [1]	Assay 3(c) Neuroprotection (% inhibition of Abeta toxicity) [2]	Assay 16 Mice plasma concentration [3]	viability at 4 days, 1 µM [1]
O=c1c2c(Cl)cc(Cl)c(O)c2ncn1N1CCOCC1 [Compound 1080]	440 nM	70%	15%		
CN1CCN(n2cnc3c(O)c(Cl)cc(Cl)c3c2=O)CC1 [Compound 1081]	550 nM		7%	Up to 207 ng/mL	
O=c1c2c(Cl)cc(Cl)c(O)c2ncn1-c1ccc(Cl)cn1 [Compound 1087]	1520 nM	58%	11%		94%
CCn1nccc1-n1cnc2c(O)c(Cl)cc(Cl)c2c1=O [Compound 1088]	840 nM	94%	3%		
Cc1ccc(-n2cnc3c(O)c(Cl)cc(Cl)c3c2=O)nc1 [Compound 1089]	780 nM	83%	13%		96%
O=c1c2c(Cl)cc(Cl)c(O)c2ncn1CCc1ccccn1 [Compound 1091]	460 nM	92%	−8%		100%
O=c1c2c(Cl)cc(Cl)c(O)c2ncn1CC1CCNCC1 [Compound 1094]		96%	1%		97%

Reference: patent US8084459B2, “Substituted quinazolinones for treating neurological conditions” (Prana Biotechnology Ltd, priority 2004, dated 2011)
